{"source": "patent US20150010928A1", "about": "“MEANS AND METHODS FOR ASSESSING AN ENDOCRINE DISEASE OR DISORDER” (priority 2012, published 2015)", "system": "male rats", "assay": "Plasma metabolite profiling (GC-MS, LC-MS, SPE-LC-MS) in male rats dosed once daily over 28 days (OECD 407)", "assay_type": "in vivo, rat", "conditions": "high dose; for Glycochenodeoxycholic acid / Mannose: Table 15c; for 3,4-Dihydroxyphenylacetic acid (DOPAC) / 18-Hydroxy-11-deoxycorticosterone / Glycerol phosphate, lipid fraction / Homovanillic acid (HVA) / Kynurenic acid / Lysophosphatidylcholine (C18:1) / Lysophosphatidylethanolamine (C22:5) / Phosphate, lipid fraction / Phosphatidylcholine (C18:0,C18:1) / Sphingomyelin (d18:1, C16:0) / Sphingomyelin (d18:1,C23:0) / Sphingomyelin (d18:1,C24:0) / Sphingomyelin (d18:2,C18:0) / TAG No 02 / Taurocholic acid / myo-Inositol, lipid fraction: Table 15d; for Alanine, ratio versus control / Androstenedione, ratio versus control / Glycine, ratio versus control / Heptadecanoic acid (C17:0), ratio versus control / Testosterone, ratio versus control / Threonine, ratio versus control / Uric acid, ratio versus control / alpha-Tocopherol, ratio versus control / Cholesterol, ratio versus control: male rats, plasma", "method_in_brief": "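Metabolites were measured by GC-MS (derivatised) and reversed-phase LC-MS, with steroids by online SPE-LC-MS, in plasma drawn from fasted rats on days 7, 14 and 28 of once-daily dosing (5/sex/group). Values are ratios versus sex-matched untreated controls, normalized to pool samples, with Welch-test p-values.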", "note": "Marks after values point to notes of the source that are not given here.", "data": [{"smiles": "C[C@@H]1CC2=CC(=O)CC[C@@H]2[C@H]2CC[C@@]3(C)[C@@H](CC[C@]3(C)O)[C@@H]21", "note": "[Mibolerone]", "values": [{"measurement": "Glycochenodeoxycholic acid", "setting": "m7, male rats", "result": 1.31}, {"measurement": "Mannose", "setting": "m7, male rats", "result": "1.41 *"}, {"measurement": "3,4-Dihydroxyphenylacetic acid (DOPAC)", "setting": "m7, male rats", "result": "0.83 *"}, {"measurement": "18-Hydroxy-11-deoxycorticosterone", "setting": "m7, male rats", "result": "0.83 *"}, {"measurement": "Glycerol phosphate, lipid fraction", "setting": "m7, male rats", "result": "0.08 *"}, {"measurement": "Homovanillic acid (HVA)", "setting": "m7, male rats", "result": "0.5 *"}, {"measurement": "Kynurenic acid", "setting": "m7, male rats", "result": "0.73 *"}, {"measurement": "Lysophosphatidylcholine (C18:1)", "setting": "m7, male rats", "result": "0.53 *"}, {"measurement": "Lysophosphatidylethanolamine (C22:5)", "setting": "m7, male rats", "result": "0.54 *"}, {"measurement": "Phosphate, lipid fraction", "setting": "m7, male rats", "result": "0.32 *"}, {"measurement": "Phosphatidylcholine (C18:0,C18:1)", "setting": "m7, male rats", "result": "0.19 *"}, {"measurement": "Sphingomyelin (d18:1, C16:0)", "setting": "m7, male rats", "result": "0.12 *"}, {"measurement": "Sphingomyelin (d18:1,C23:0)", "setting": "m7, male rats", "result": "0.07 *"}, {"measurement": "Sphingomyelin (d18:1,C24:0)", "setting": "m7, male rats", "result": "0.1 *"}, {"measurement": "Sphingomyelin (d18:2,C18:0)", "setting": "m7, male rats", "result": "0.17 *"}, {"measurement": "TAG No 02", "setting": "m7, male rats", "result": "0.34 *"}, {"measurement": "Taurocholic acid", "setting": "m7, male rats", "result": 1.11}, {"measurement": "myo-Inositol, lipid fraction", "setting": "m7, male rats", "result": "0.08 *"}, {"measurement": "Glycochenodeoxycholic acid", "setting": "m14, male rats", "result": "2.14 *"}, {"measurement": "Mannose", "setting": "m14, male rats", "result": "1.08 *"}, {"measurement": "3,4-Dihydroxyphenylacetic acid (DOPAC)", "setting": "m14, male rats", "result": 0.96}, {"measurement": "18-Hydroxy-11-deoxycorticosterone", "setting": "m14, male rats", "result": 0.93}, {"measurement": "Glycerol phosphate, lipid fraction", "setting": "m14, male rats", "result": "0.35 *"}, {"measurement": "Homovanillic acid (HVA)", "setting": "m14, male rats", "result": "0.69 *"}, {"measurement": "Kynurenic acid", "setting": "m14, male rats", "result": 0.5}, {"measurement": "Lysophosphatidylcholine (C18:1)", "setting": "m14, male rats", "result": "0.81 *"}, {"measurement": "Lysophosphatidylethanolamine (C22:5)", "setting": "m14, male rats", "result": 0.87}, {"measurement": "Phosphate, lipid fraction", "setting": "m14, male rats", "result": "0.62 *"}, {"measurement": "Phosphatidylcholine (C18:0,C18:1)", "setting": "m14, male rats", "result": "0.61 *"}, {"measurement": "Sphingomyelin (d18:1, C16:0)", "setting": "m14, male rats", "result": "0.37 *"}, {"measurement": "Sphingomyelin (d18:1,C23:0)", "setting": "m14, male rats", "result": "0.53 *"}, {"measurement": "Sphingomyelin (d18:1,C24:0)", "setting": "m14, male rats", "result": "0.63 *"}, {"measurement": "Sphingomyelin (d18:2,C18:0)", "setting": "m14, male rats", "result": "0.3 *"}, {"measurement": "TAG No 02", "setting": "m14, male rats", "result": "0.24 *"}, {"measurement": "Taurocholic acid", "setting": "m14, male rats", "result": "0.62 *"}, {"measurement": "myo-Inositol, lipid fraction", "setting": "m14, male rats", "result": "0.29 *"}, {"measurement": "Glycochenodeoxycholic acid", "setting": "m28, male rats", "result": "5.73 *"}, {"measurement": "Mannose", "setting": "m28, male rats", "result": "1.07 *"}, {"measurement": "3,4-Dihydroxyphenylacetic acid (DOPAC)", "setting": "m28, male rats", "result": "0.79 *"}, {"measurement": "18-Hydroxy-11-deoxycorticosterone", "setting": "m28, male rats", "result": "0.63 *"}, {"measurement": "Glycerol phosphate, lipid fraction", "setting": "m28, male rats", "result": 0.7}, {"measurement": "Homovanillic acid (HVA)", "setting": "m28, male rats", "result": "0.6 *"}, {"measurement": "Kynurenic acid", "setting": "m28, male rats", "result": "0.54 *"}, {"measurement": "Lysophosphatidylcholine (C18:1)", "setting": "m28, male rats", "result": "0.91 *"}, {"measurement": "Lysophosphatidylethanolamine (C22:5)", "setting": "m28, male rats", "result": "0.85 *"}, {"measurement": "Phosphate, lipid fraction", "setting": "m28, male rats", "result": "0.81 *"}, {"measurement": "Phosphatidylcholine (C18:0,C18:1)", "setting": "m28, male rats", "result": 1.1}, {"measurement": "Sphingomyelin (d18:1, C16:0)", "setting": "m28, male rats", "result": "0.51 *"}, {"measurement": "Sphingomyelin (d18:1,C23:0)", "setting": "m28, male rats", "result": 1.09}, {"measurement": "Sphingomyelin (d18:1,C24:0)", "setting": "m28, male rats", "result": 1.01}, {"measurement": "Sphingomyelin (d18:2,C18:0)", "setting": "m28, male rats", "result": "0.33 *"}, {"measurement": "TAG No 02", "setting": "m28, male rats", "result": "0.23 *"}, {"measurement": "Taurocholic acid", "setting": "m28, male rats", "result": "0.75 *"}, {"measurement": "myo-Inositol, lipid fraction", "setting": "m28, male rats", "result": "0.5 *"}, {"measurement": "Alanine, ratio versus control", "setting": "day 7", "result": "0.72 *"}, {"measurement": "Androstenedione, ratio versus control", "setting": "day 7", "result": "0.05 *"}, {"measurement": "Glycine, ratio versus control", "setting": "day 7", "result": "0.86 *"}, {"measurement": "Heptadecanoic acid (C17:0), ratio versus control", "setting": "day 7", "result": "0.37 *"}, {"measurement": "Testosterone, ratio versus control", "setting": "day 7", "result": "0.07 *"}, {"measurement": "Threonine, ratio versus control", "setting": "day 7", "result": "0.76 *"}, {"measurement": "Uric acid, ratio versus control", "setting": "day 7", "result": "0.66 *"}, {"measurement": "alpha-Tocopherol, ratio versus control", "setting": "day 7", "result": "0.07 *"}, {"measurement": "Alanine, ratio versus control", "setting": "day 14", "result": "0.93 *"}, {"measurement": "Androstenedione, ratio versus control", "setting": "day 14", "result": "0.96^"}, {"measurement": "Cholesterol, ratio versus control", "setting": "day 14", "result": "0.27 *"}, {"measurement": "Glycine, ratio versus control", "setting": "day 14", "result": "0.86^"}, {"measurement": "Heptadecanoic acid (C17:0), ratio versus control", "setting": "day 14", "result": "0.57 *"}, {"measurement": "Testosterone, ratio versus control", "setting": "day 14", "result": "0.68 *"}, {"measurement": "Threonine, ratio versus control", "setting": "day 14", "result": "1.02^"}, {"measurement": "Uric acid, ratio versus control", "setting": "day 14", "result": "0.7 *"}, {"measurement": "alpha-Tocopherol, ratio versus control", "setting": "day 14", "result": "0.33 *"}, {"measurement": "Alanine, ratio versus control", "setting": "day 28", "result": "1.14^"}, {"measurement": "Androstenedione, ratio versus control", "setting": "day 28", "result": "0.46 *"}, {"measurement": "Cholesterol, ratio versus control", "setting": "day 28", "result": "0.52 *"}, {"measurement": "Glycine, ratio versus control", "setting": "day 28", "result": "0.72 *"}, {"measurement": "Heptadecanoic acid (C17:0), ratio versus control", "setting": "day 28", "result": "0.82 *"}, {"measurement": "Testosterone, ratio versus control", "setting": "day 28", "result": "0.26 *"}, {"measurement": "Threonine, ratio versus control", "setting": "day 28", "result": "1.04^"}, {"measurement": "Uric acid, ratio versus control", "setting": "day 28", "result": "0.5 *"}, {"measurement": "alpha-Tocopherol, ratio versus control", "setting": "day 28", "result": "0.64 *"}]}]}
